From patent US20220347171A1, “TREATMENT OF PRURIGO NODULARIS” (TREVI THERAPEUTICS, INC., priority 2016, published 2022) come the findings set out here.

Where a name gives a salt, the structure may show the parent alone.

Assay [1] concerns prurigo nodularis patients. Briefly: TR03ext (Example 3), titrated 30 mg QD to 180 mg BID: ItchyQoL Total Score. In kind it is in vivo, human. Particulars: Baseline 75.2 (15.1). The text has this:
This clinical study was a Phase 2 Open Label Extension Study (clinical study TR03ext) of the randomized, double-blind, 3-parallel arm, placebo controlled dose ranging study described in Example 2. All those subjects who were randomized, and then completed Example 2 study, were eligible to participate in the Extension Study.
The primary endpoint was a description of the overall incidence and nature of Treatment-Emergent AEs (TEAES) during weeks 5-50 of the study. Exploratory efficacy endpoints included Change from Baseline patient reported outcome measures of Worst itch NRS, itchy VRS and ItchyQoL, by Treatment Period study visit and Baseline NRS score. There was also an assessment of any potential skin lesion changes over time using the metrics of the PAS.
Of the 63 patients that were randomized to the study of Example 2, 36 subjects who enrolled into Extension Study entered the Treatment Period of the study and were exposed to nalbuphine HCl ER tablet administration and are the basis of the study safety population analysis.
Patients in Extension Study were titrated over a dose range of 30 mg QD to 180 mg BID based on tolerability. The selected dose range was based on Example 2 study whereby patients were titrated from a 30 mg QD dose either to 30 mg BID, 60 mg BID, 90 mg BID, 120 mg BID or a 180 mg BID dose. The highest dose proposed was 180 mg BID (360 mg daily dose), and was well below the highest recommended daily treatment of 160 mg IV (equivalent to 960 mg oral) for the current marketed parenteral administered product.
The study duration for each patient was up to 52 weeks, with up to 50 weeks on study drug. The Extension Study consisted of a Treatment Period (that was followed by a Washout Safety Follow-up Period) and an Observation Period. Patients either entered directly into a drug Treatment Period (NRS >5) or a no-drug Observation Period (NRS ≤5) based on their reported NRS scores on the first Visit (Visit 1a). For up to 12 Extended Screening weeks, patients in the no-drug Observation Period could have also transitioned into the drug Treatment Period if their NRS increased to NRS >5. All patients entering the Treatment Period, whether immediately upon study entry or following a period of time in the Observation Period, were titrated to a dose ranging between 30 mg up to 180 mg BID, the highest dose tested in Example 2.

In assay [2] the test system is prurigo nodularis patients. Nature of the assay: Double-blind, placebo-controlled trial in prurigo nodularis patients (Example 2): 7-day average daily Worst Itching Intensity NRS (0-10). It is filed as in vivo, human. Here is the method:
This clinical study was a double-blind, placebo-controlled trial in which prurigo nodularis patients were randomized in a 1:1:1 ratio to nalbuphine ER tablets to a target dose of 90 mg twice daily (BID), nalbuphine HCl ER tablets 180 mg BID, or placebo tablets BID. Use of nonsedating rescue antihistamine medications (non-first generation H1-antihistamines [Simons F E. Advances in H1-antihistamines. N Engl J Med. 2004; 351(21):2203-17.]) were allowed in the study but their use was recorded. Cleansing emollients were allowed for hygiene purposes provided there were no active substances (such as menthol or urea) contained in the lotion. A placebo comparator was chosen because there are no approved treatments for prurigo nodularis in the United States or Europe or an established standard of care that could serve as an active control.
The primary objectives were to evaluate the effects of two doses of nalbuphine HCl ER tablets on the 7-day average daily worst itch (i.e., most severe) intensity using a Worst Itching Intensity Numerical Rating Scale (NRS, 0 [no itching]-10 [worst possible itching]; range, 0-10; anchors at 0 “no itching”; 4-6 “moderate itching”; and 10 “worst possible itching”) (FIG. 1) as well as safety and tolerability. The study was conducted at four North American sites and four European sites. The Sponsor oversaw the conduct of the trial and an independent unblinded Data Safety Monitoring Board reviewed safety data approximately once a month during the conduct of the trial.
The initial primary endpoint was the proportion of patients who achieved at least 30% reduction threshold in 7-day average daily diary-reported worst itch intensity NRS score from baseline to Week 10/last observed post-baseline value (LOV). For the primary endpoint, a responder was a patient who achieved at least 30% reduction threshold in 7-day average daily diary-reported worst itch intensity NRS score from baseline to Week 10/last observed post-baseline value (LOV).
Before study completion and unblinding, however, a more substantial 50% NRS reduction criterion was added as an important definition of response. For this criterion, a responder was a patient who achieved at least 50% reduction threshold in 7-day average daily diary-reported worst itch intensity NRS score from baseline to Week 10/last observed post-baseline value (LOV).
The modified intent-to-treat (MITT) population consisted of all randomly assigned patients who provided a baseline calculated NRS and at least one post-baseline NRS during randomized treatment. Patients were analyzed according to the treatment to which they were randomly assigned.
The primary worst itch NRS endpoint was evaluated by the calculation of proportions, and statistical testing of each nalbuphine dose and placebo was undertaken using a stratified categorical method, the Cochran-Mantel-Haenszel test that took into account site. Specifically, each nalbuphine group was compared to placebo in the form of a stratified (by site) 2×2 table with a P value reported for the nalbuphine HCl ER 180 mg BID versus placebo comparison and a P value separately reported for the nalbuphine HCl ER 90 mg BID versus placebo comparison. The lower nalbuphine dose versus placebo P value was evaluated only if the higher nalbuphine dose versus placebo P value was statistically significant at the 0.05 level. Data from all post-baseline visits were used to fit the model.
In the first 2 weeks of treatment, patients were blindly force-titrated to their assigned target dose, with the patients in the active arms reaching a dose of 90 mg BID (NAL 90) and, for those in the high dose group, to 180 mg BID (NAL 180) in the second week. Study drug was administered in blister cards containing the labeled morning and evening doses for each day of the week. Subsequently, patients continued stable doses of the study drug for an additional 8 weeks and were then washed off study drug and followed for another 2 weeks for itching intensity and safety.

As for `Oc1ccc2c3c1OC1[C@@H](O)CC[C@@]4(O)[C@@H](C2)N(CC2CCC2)CC[C@]314` (stereo partly drawn) [Nalbuphine, 17-(cyclobutylmethyl)-4,5α-epoxymorphinian-3, 6α, 14-triol, hydrochloride], the “ItchyQoL Total Score Visit Mean (SD)” value in assay [1] (Study Week 3, N=33) is 70.3 (18.7); in assay [1] (Study Week 5, N=31) it was 67.8 (19.0); in assay [1] (Study Week 9, N=28), 65.8 (18.5); in assay [1] (Study Week 13, N=24) it was 65.7 (17.4); in assay [1] (Study Week 17, N=24), 63.5 (19.4); in assay [1] (Study Week 21, N=21) it was 62.6 (18.0). Further, the “ItchyQoL Total Score Visit Mean (SD)” value is 59.4 (16.8) in assay [1] (Study Week 26, N=20); 60.8 (18.9) in assay [1] (Study Week 30, N=19); 62.2 (15.2) in assay [1] (Study Week 34, N=17); 61.9 (16.1) in assay [1] (Study Week 38, N=16); 63.4 (15.3) in assay [1] (Study Week 42, N=16); 62.4 (14.1) in assay [1] (Study Week 46, N=16). The “ItchyQoL Total Score Visit Mean (SD)” value in assay [1] (Study Week 50, N=14) is listed as 63.3 (15.9). For the same compound, the “Responders: at least 30% reduction in 7-day average daily diary-reported worst itch intensity NRS score from baseline” value in assay [2] (90 mg BID, Week 10 - LOV, MITT N=22, P value 0.779 vs placebo) is reported as 6 (27.3) N (%); in assay [2] (90 mg BID, Week 10 - completer, N=18, P value 0.723 vs placebo) it was 6 (33.3) N (%); in assay [2] (180 mg BID, Week 10 - LOV, MITT N=18, P value 0.323 vs placebo) it was 8 (44.4) N (%); in assay [2] (180 mg BID, Week 10 - completer, N=12, P value 0.026 vs placebo), 9 (75.0) N (%). Besides, the “Responders: at least 50% reduction in 7-day average daily diary-reported worst itch intensity NRS score from baseline” value in assay [2] (90 mg BID, Week 10 - LOV, MITT N=22, p-value 0.981 vs placebo) is on record as 3 (13.6%) N (%); in assay [2] (90 mg BID, Week 10 - completer, N=18, p-value 0.649 vs placebo), 2 (11.1%) N (%); in assay [2] (180 mg BID, Week 10 - LOV, MITT N=18, p-value 0.083 vs placebo) it was 6 (33.3%) N (%); in assay [2] (180 mg BID, Week 10 - completer, N=12, p-value 0.028 vs placebo), 6 (50%) N (%). The “Mean Change from Baseline to the Last Observation in the Worst Itching NRS versus placebo” value in assay [2] (180 mg BID, patients who completed the study, P=0.025) is on record as “statistically significant difference”.
